In patent US20080027139A1, “Use of Alpha-Ketoglutarate and Related Compounds” (priority 2004, published 2008):
Read-outs that look alike come from different tables or passages of the source.

Legend:
[1] = test system: volunteers with a relatively high level of cholesterol
Text: The experiment lasted for the total of 42 days. […] During the experiment no quantitative or qualitative restrictions regarding the diet were introduced. In the period from day 1 to day 28 the patients' lipid profile was checked every seven days in order to determine the concentration of cholesterol, fractions of LDL and HDL and triglycerides. […] Subsequent measurements of the lipid profile were taken on 42nd day of the experiment.

[2] = test system: Wistar rats with diet-induced hypercholesterolaemia; details: day 120; AKG doses 0.1 and 1 from day 61 for 60 days; p<0.05
Text: Afterwards all animals received fodder enriched with 1% cholesterol (Sigma-Aldrich, Germany) and 10% lard in order to obtain hypercholesterolaemia. • 12 rats (6 females and 6 males) were killed on day 0 as an introduction control. • 12 rats (6 females and 6 males) were killed at day 30. • 12 rats (6 females and 6 males) were killed at day 60.
Remaining 48 rats were divided into 3 groups and the experiment continued for another 60 days on cholesteremic diet: • 1. Placebo group—24 rats (12 females and 12 males) • 2. 1 g AKG group—12 rats (6 females and 6 males) • 3. 0.1 g AKG group—12 rats (6 females and 6 males)
During the first 60 days of using cholesterol and lard enriched diet, the lipid profile was checked three times to determine the concentration of the entire cholesterol, the fraction of LDL and HDL and triglycerides. Measuring tests were performed a day before the said diet was commenced (day 0) and subsequently after 30 and 60 days of the application of the said diet. On the sixty first day of the experiment animals were divided into two groups: one receiving the placebo solution and the other receiving AKG solution (AKG in doses 0.1 and 1 (Table 9). All the time animals continued to receive experimental fodder. During the period when placebo and AKG solutions were administered, the lipid profile was checked on the 120th day of the experiment. […]

[3] = test system: sham-operated (SHO) and ovariectomized (OVX) Wistar female rats
Method: A study was conducted on Wistar female rats kept in standard weather conditions. […] Afterwards the female rates were randomly divided into 2 groups: ovariectomy were performed in all animals in group one (OVX) and placebo operation were done in the second group (SHO). Surgical procedures were performed under general anesthesia (rometare, ketamine and atropine in doses 2, 10 and 0.05 mg/kg of bodily weight respectively.
Studies were conducted on the animals from the two groups: females received experimental solutions from the seventh day following the operation (simulation of the first period of the lack of activity of the ovarian hormones) (Experiment I 1), females aged 7 months with a 5 month period in which there was no activity of hormonal ovaries (simulation of the period with a prolonged absence of the activity of ovarian hormones) (Experiment I 2) (Tab. 2).
In each of Experiments I1 and I2 40 animals was used for each experimental doses making a total of 240 animals.
Blood samples were collected immediately after slaughter, and the plasma removed by centrifugation was stored in a safe place for further biochemical analyses.
The entire cholesterol concentration was determined by means of commonly available analytical equipment using the spectrophotometric method.

[4] = Volunteer 1, 1st week, chewable tablets of 1.28 g calcium alpha-ketoglutarate (1 g AKG), two tablets three times a day, day 1-28
[5] = Volunteer 1, 2nd week, calcium alpha-ketoglutarate tablets (1 g AKG), two tablets three times a day
[6] = Volunteer 1, 3rd week, calcium alpha-ketoglutarate tablets (1 g AKG), two tablets three times a day
[7] = Volunteer 1, 4th week, calcium alpha-ketoglutarate tablets (1 g AKG), two tablets three times a day
[8] = Volunteer 1, 6th week, after 2 weeks without AKG
[9] = Volunteer 2, 1st week, chewable tablets of 1.28 g calcium alpha-ketoglutarate (1 g AKG), two tablets three times a day, day 1-28
[10] = Volunteer 2, 2nd week, calcium alpha-ketoglutarate tablets (1 g AKG), two tablets three times a day
[11] = Volunteer 2, 3rd week, calcium alpha-ketoglutarate tablets (1 g AKG), two tablets three times a day
[12] = Volunteer 2, 4th week, calcium alpha-ketoglutarate tablets (1 g AKG), two tablets three times a day
[13] = Volunteer 2, 6th week, after 2 weeks without AKG
[14] = two volunteers, after a 14 day break in administering the preparation

Q: With `O=C(O)CCC(=O)C(=O)O` [AKG, alpha-ketoglutaric acid] as the molecule, how does the HDL level [1, 4] read?
A: 45 mg/dL

Q: What about the Total cholesterol level [1, 4] of the same molecule?
A: 194 mg/dL

Q: And the Triglycerides level [1, 4]?
A: 197 mg/dL

Q: And the HDL level [1, 5]?
A: 41 mg/dL

Q: What about the Total cholesterol level [1, 5] of the same molecule?
A: 196 mg/dL

Q: What about the Triglycerides level [1, 5] of the same molecule?
A: 304 mg/dL

Q: What about the HDL level [1, 6] of the same molecule?
A: 42 mg/dL

Q: And the Total cholesterol level [1, 6]?
A: 171 mg/dL

Q: What about the Triglycerides level [1, 6] of the same molecule?
A: 269 mg/dL

Q: What about the HDL level [1, 7] of the same molecule?
A: 48 mg/dL

Q: What about the Total cholesterol level [1, 7] of the same molecule?
A: 157 mg/dL

Q: And the Triglycerides level [1, 7]?
A: 259 mg/dL

Q: What about the HDL level [1, 8] of the same molecule?
A: 33 mg/dL

Q: What about the Total cholesterol level [1, 8] of the same molecule?
A: 197 mg/dL

Q: And the Triglycerides level [1, 8]?
A: 375 mg/dL

Q: And the HDL level [1, 9]?
A: 35 mg/dL

Q: What about the Total cholesterol level [1, 9] of the same molecule?
A: 190 mg/dL

Q: What about the Triglycerides level [1, 9] of the same molecule?
A: 122 mg/dL

Q: What about the HDL level [1, 10] of the same molecule?
A: 44 mg/dL

Q: And the Total cholesterol level [1, 10]?
A: 213 mg/dL

Q: What about the Triglycerides level [1, 10] of the same molecule?
A: 101 mg/dL

Q: What about the HDL level [1, 11] of the same molecule?
A: 40 mg/dL

Q: And the Total cholesterol level [1, 11]?
A: 199 mg/dL

Q: What about the Triglycerides level [1, 11] of the same molecule?
A: 199 mg/dL

Q: What about the HDL level [1, 12] of the same molecule?
A: 42 mg/dL

Q: What about the Total cholesterol level [1, 12] of the same molecule?
A: 189 mg/dL

Q: What about the Triglycerides level [1, 12] of the same molecule?
A: 187 mg/dL

Q: And the HDL level [1, 13]?
A: 40 mg/dL

Q: And the Total cholesterol level [1, 13]?
A: 215 mg/dL

Q: What about the Triglycerides level [1, 13] of the same molecule?
A: 220 mg/dL

Q: What about the “effect on concentration of HDL (in words)” value ([1]; two volunteers, 28 days of tablets containing 1 g of AKG, 2 tablets 3 times a day) of the same molecule?
A: No significant effect

Q: And the “effect on concentration of the entire cholesterol (in words)” value ([1]; two volunteers, after 28 days of tablets containing 1 g of AKG, 2 tablets 3 times a day)?
A: decrease

Q: And the “change of concentration of HDL fraction after stopping (in words)” value [1, 14]?
A: statistically significant decrease

Q: What about the “change of concentration of the entire cholesterol after stopping (in words)” value [1, 14] of the same molecule?
A: increased

Q: And the “change of concentration of triglycerides after stopping (in words)” value [1, 14]?
A: significant increase

Q: And the “effect on concentration of triglycerides (in words)” value ([1]; two volunteers, from day 1 to day 28 of AKG tablets)?
A: increase

Q: And the “effect on concentration of HDL (in words)” value [2]?
A: increase

Q: And the “effect on concentration of the entire cholesterol (in words)” value ([3]; OVX females, AKG dose 0.01 during 60 days, Experiment I-1, p=0.04, reaching the level of the control group)?
A: statically significant decrease

Q: What about the “effect on concentration of the entire cholesterol (in words)” value ([3]; both doses 0.01 and 0.1, OVX and SHO groups, Experiment I-2 (prolonged lack of ovarian hormones)) of the same molecule?
A: statistically significant decrease

Q: And the “effect on concentration of the entire cholesterol (in words)” value ([3]; dose 1, females after ovariectomy relative to the control group, long-term absence of ovarian hormones (Experiment I-2))?
A: decreased

Q: What about the “effect on concentration of the entire cholesterol (in words)” value ([3]; dose 1, females after ovariectomy relative to the control group, short-term absence of ovarian hormones (Experiment I-1)) of the same molecule?
A: decreased
